In one data set the test system is HepG2 cells. Kind of data set: in vitro. From the text:
(§1) These studies included analysis of lactic acid production, mtDNA content and determination of changes in morphology (e.g., loss of cristae, matrix dissolution and swelling, and lipid droplet formation) of mitochondrial ultrastructure.

Data set [1] can be described thus: in vitro. As to conditions: human, hepg2 cells.
Text: as §1

Data set [2] in a line: in vitro. To be noted: human, bone marrow cfu-gm.
Data set [3] can be described thus: in vitro. As to conditions: human, bone marrow bfu-e.
Another data set concerns EBV. The experiment in a line: Antiviral panel: EBV in Daudi. The class given is cell-based.
Another data set relates to 2.2.15. The experiment in a line: Cytotoxicity in 2.2.15 cells.
A further data set concerns VZV. Kind of data set: Antiviral panel: VZV in HFF. The class given is cell-based.
The subject of data set [4] is Salmonella typhimurium strains TA98, TA100, TA1535, and TA1537 and escherichia coli strain WP2uvrA. The experiment in a line: S. typhimurium and E. coli plate incorporation mutation assay. In kind it is cell-based. Here is the method:
L-dC was tested for its potential to cause mutation at the histidine operon of Salmonella typhimurium strains TA98, TA100, TA1535, and TA1537 and at the tryptophan opeton of escherichia coli strain WP2uvrA. L-dC at concentrations of […] plus positive and negative controls were tested. […] After incubation for approximately 68 hours, L-dC and controls were evaluated for the number of revertants per plate and integrity of the background microcolony lawn.

The test system of data set [5] is HBV. Kind of data set: Antiviral activity against HBV in 2.2.15 cells (reduction of HBV DNA).
The subject of the next data set is HIV-1. To be noted: read-out: EC50 HIV-1 (PBMC).
Data set [6] deals with WHV. Kind of data set: Woodchuck model, twelve-week study. As to conditions: 1 mg/kg/day. In kind it is in vivo, woodchucks. Here is the method:
WHV DNA levels were determined by quantitative PCR.

Data set [7] relates to WHV. The experiment in a line: Woodchuck model of chronic hepatitis B infection, 28 days. In kind it is in vivo, woodchucks.
For data set [8] the following is noted: monkey, in vivo, 10 mg/kg.
Data set [9] concerns HBV. As to conditions: human, 2.2.15 cells.

Each structure is given as a SMILES string. Values after ≈ are worked out from the molar mass of the structure shown. “Also recorded” adds a separate entry of the source. Like-named read-outs stand apart in the source and are kept apart here.

Usually IC50 stands for the point on the concentration scale where inhibition reaches its midpoint. Higher therefore signals weaker potency. `Cc1cn([C@H]2C[C@H](N=[N+]=[N-])[C@@H](CO)O2)c(=O)[nH]c1=O` [ZDV, zidovudine]: the “Lipid Droplet Formation” value in the data set with HepG2 cells is recorded as “negative”. In the data set on HepG2 cells (human), the “increase of lactic acid production compared to vehicle control” value is reported as 100%. In “in vitro [1]”, the activity was 239 ± 34% and the activity at 336 h came out at 119%. The IC50 in the data set “in vitro [2]” was determined as 1.8 µM. Moreover, 0.7 µM corresponded to half-maximal inhibition in “in vitro [3]” (IC50).
In general, CC50 refers to the concentration that lowers cell viability or growth by half. One may read the EC50 as the concentration giving half of the maximal effect. The term AUC(0-t) denotes exposure summed from dosing to a finite time, without extrapolation to infinity. Take `Nc1ccn([C@@H]2C[C@@H](O)[C@H](CO)O2)c(=O)n1` [L-dC, 2'-deoxy-β-L-cytidine]: the “Lipid Droplet Formation” value in the data set on HepG2 cells is “negative”. Further, the half-maximal cytotoxic concentration (CC50) was > 2000 µM with HepG2 cells (HepG2 cells, after 14 days of treatment); > 2000 µM in the data set with 2.2.15 (2.2.15); 3000 ± 96 µM in the data set with 2.2.15 (2.2.15 cells, 50% inhibition of neutral red dye uptake, combination study). Further, the “EC50 EBV (Daudi)” value with EBV was >50 mg/L. In addition, the “EC50 VZV (HFF)” value in the data set with VZV stood at 18.6 mg/L (≈ 81.9 µM). The mutagenicity result in [4] (concentrations up to 5000 µg/plate) is “not mutagenic”; in [4] (concentrations up to 5000 mg/plate, with and without rat liver S-9) it was “no evidence of mutagenicity”. The “S.I. (CC50/EC90)” value in the data set on HBV [5] (2.2.15 cells) is 2,727. For the same compound, the “HBV replication returned to 50% of pretreatment levels” value in the data set with HBV [5] (viral rebound after drug withdrawal, 2.2.15 cells) was ≤ 18 day post-treatment. Moreover, in the data set on HIV-1, the half-maximal effective concentration (EC50) was > 200 µM. For the same compound, the toxicity result is reported as “no drug-related toxicity” with WHV [6] (12-week treatment phase and 12-week follow-up); “no drug-related toxicity; also recorded: No toxicity was observed” with WHV [7] (four-week treatment phase and eight-week follow-up, 0.01-10 mg/kg/day orally). In addition, the end-of-treatment liver biopsies result with WHV [6] (12 weeks) was “no histomorphological evidence of fatty changes (microvesicular steatosis); also recorded: no evidence of fatty change (microvesicular steatosis)”. For the same compound, in the data set on WHV [7] (compared to control animals, 28 days 0.01-10 mg/kg/day), the body weight result was “no weight loss”. In addition, the AUC(0-t) in data set [8] (iv) amounted to 81.1 µM·h; in data set [8] (po) it was 13.7 µM·h.
As usually defined, the EC90 is the concentration at which the effect reaches the 90% level. In the case of `Cc1cn([C@@H]2C[C@@H](O)[C@H](CO)O2)c(=O)[nH]c1=O` [L-dT, β-L-2'-deoxythymidine, reference compound], the concentration for an effect of 90% (EC90) in the data set with HBV [5] (10-fold reduction of HBV virion DNA levels, combination study) turned out to be 1.2 ± 0.1 µM. Besides, the “S.I. (CC50/EC90)” value with HBV [9] was 2,518.

Source of the values: patent EP1296995B1, “3'-PRODRUGS OF 2'-DEOXY-BETA-L-NUCLEOSIDES” (priority 2000, dated 2001).
